Data as given in PMC4304871 (Nature structural & molecular biology, 2014).

Tested on: 10E8 antibody
Experiment: Competitive 10E8 ELISA binding assay
Set-up: species or system human

Question: For “ELXKWAXLWNWFNITNZLWXIK (bicyclic or more) [SAH-MPER(662–683)(C,q)]”, which “10E8 Fab-binding activity (in words)” value is on record?
Answer: no binding activity
